Patent US5527940A, “Methanediphosphonate derivative, its manufacturing process and its pharmaceutical applications” (Toray Industries, Inc., priority 1991, dated 1996)

What was measured:
[1] = system: osteoclasts (mouse bone cells), resorption pit formation; assay: Bone resorption pit formation by mouse bone cells (osteoclasts) on ivory, active type-vitamin D3 stimulation; format: cell-based, ICR mice; conditions: 10 nM active type-vitamin D3, 4 days
Text: The balance between bone formation and bone destruction is disturbed during osteoporosis, with bone destruction considered to be accelerated. Bone destruction is believed to occur due to an increase in the activation and number of osteoclasts. Experiments have been conducted wherein bone resorption was induced with active type-vitanium D3 stimulation using mouse bone cells dispersed on ivory for the experimental model. The bone resorption inhibitory action of compounds of the present invention was measured using this model.
After isolating the femur and tibia from 10-15 day old ICR mice, the bone specimens were prepared into thin sections in α-MEM medium containing 5% fetal bovine serum to prepare an bone cells suspension containing marrow cells and bone matrix. Large fragments of bone were removed with nylon mesh. Viable total cells were counted with trypan blue exclusion test while osteoclasts were stained with tartaric acid-resistantacid phosphatase stain to prepare a cell suspension containing osteoclasts in a proportion of roughly 0.05-0.1%. The ivory was cut into thin sections having a thickness of 150 μm using a low-speed rotary diamond cutter. The thin sections were then punched to a size that matched the size of the wells of a 96 well plate. These ivory fragments were placed in a 96 well plate followed by addition of the cell suspension prepared above so that each well contained 500 osteoclasts. 10 nM active type-vitamin D3 was added as stimulant simultaneous to addition of the drugs of the present invention at concentrations of 10 μM and 100 μM. After culturing the cells for 4 days at 37° C. in an environment of 10% CO2, the resorption pits that formed on the ivory slices were stained with hematoxylin and counted by observing microscopically. The resorption pit formation inhibition rate was then calculated using the formula indicated below. [formula]
The results were statistically processed using the Student's t-test, and those results that were significant at a level of significance of P<0.05 with respect to an active type-vatanium D3 stimulation control group were indicated with one asterisk (*), while those results that were significant at a level of significance of P<0.01 were indicated with two asterisks (**).

[2] = system: IL-1 production by J774-1 mouse macrophage cells; assay: Action on IL-1 Production by Strain J774-1 Mouse Macrophage Cells (LPS stimulated); format: cell-based; conditions: 100 μM compound, LPS 1 μg/ml, 24 hours, read-out: IL-1 Production Inhibition Rate with respect to Control Group
Procedure: It is also known that these cells produce IL-1 when stimulated with LPS. The inhibitory action on IL-1 production of compounds of the present invention was measured according to the following procedure using this cell line.
The J774-1 cells were cultured in RPMI-1640 medium containing 10% fetal bovine serum and 50 μM 2-mercaptoethanol followed by adjusting the number of cells to 2×10^5 cells/ml. 1 ml aliquots of this cell suspension were then placed in the wells of a 24 well plate and cultured for 30 minutes. Following culturing, LPS was added to a final concentration of 1 μg/ml. At the same time, compounds obtained in Examples were dissolved in sterilized distilled water and added at a concentration of 100 μM. […]
The samples obtained above were serially diluted by a factor of 2 in a 96 well multiplate at a capacity of 50 μl. […] The thymus cells were then cultured for 72 hours and IL-1 activity was determined from the growth rate of the cells. […] Using the absorbance of the pigment produced by this reduction at 570 nm as the index, the dilution factor of the sample when growth of thymus cells is induced by 50% was calculated in terms of the number of units of that sample by taking the case of induction of maximum growth of T cells by human gene recombinant IL-1 to be 100% growth, and growth in the case of not adding IL-1 to be 0%. […]

CSc1ccc(SC(P(=O)(O)O)P(=O)(O)O)cc1 [Example 2, (4-methylthiophenyl)thiomethanediphosphonic acid]
resorption pit formation Inhibition Rate with respect to Control Group ([1]; 10 μM compound): 79.9 ± 3.12%
resorption pit formation Inhibition Rate with respect to Control Group ([1]; 100 μM compound): 92.6 ± 1.08%
inhibition at 100 µM [2]: 51.4%
